# Measured values taken from PMC11737341, “Cloning and functional verification of Geraniol-10-Hydroxylase gene in Lonicera japonica” (PeerJ, 2025).
# Target: T1, LjG10H (geraniol 10-hydroxylase) (Lonicera japonica, UniProt U5NH25)
# T1 construct: pET32a, N-terminal TRX/His tag kept (band about 72 kDa), E. coli BL21, Ni column
# Experiment: HPLC detection of 10-hydroxygeraniol formed by purified recombinant protein
# Format: biochemical
# Conditions: 2.5 mmol/L geraniol, 1 mmol/L NADPH with glucose-6-phosphate / G6PDH, FAD, FMN, EDTA, DTT, potassium phosphate pH 7.6, 30 °C, 3 h; no P450 reductase mentioned
# T1 sequence (U5NH25 entry or part of it): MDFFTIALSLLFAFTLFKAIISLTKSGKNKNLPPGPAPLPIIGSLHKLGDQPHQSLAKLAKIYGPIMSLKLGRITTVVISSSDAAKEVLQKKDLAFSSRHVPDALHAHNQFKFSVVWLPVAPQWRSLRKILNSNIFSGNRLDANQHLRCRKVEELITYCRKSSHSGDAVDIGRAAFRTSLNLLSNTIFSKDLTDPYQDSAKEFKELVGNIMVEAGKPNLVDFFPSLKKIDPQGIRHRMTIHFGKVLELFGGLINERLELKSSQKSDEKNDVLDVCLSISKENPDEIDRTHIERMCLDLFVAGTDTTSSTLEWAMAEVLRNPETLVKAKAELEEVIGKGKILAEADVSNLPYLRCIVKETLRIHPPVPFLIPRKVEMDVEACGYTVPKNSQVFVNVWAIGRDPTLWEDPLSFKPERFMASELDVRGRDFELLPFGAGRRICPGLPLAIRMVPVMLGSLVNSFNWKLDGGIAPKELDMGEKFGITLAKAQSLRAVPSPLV
structure (smiles),measurement,value
CC(C)=CCC/C(C)=C/CO [geraniol],HPLC detection of 10-hydroxygeraniol formed by purified recombinant protein,LjG10H exhibits catalytic activity in the conversion of geraniol to 10-hydroxygeraniol in vitro
